The source of these data is patent US9040533B2, “Oxime-substituted-quinoxaline-type piperidine compounds as ORL-1 modulators” (priority 2012, dated 2015).

What is called IC50 is the concentration that inhibits the measured activity by half. A low value points to greater potency in that assay. A word on the EC50: it is the concentration needed to bring the measured effect to its halfway point. High values mean a less potent agent, low ones a more potent agent. What is called Ki is the equilibrium dissociation constant of an inhibitor or competing ligand from its target.

One test addresses CYP2D6 (Homo sapiens, UniProt P10635). The test can be described thus: biochemical.
The target of a further test is CYP3A4 (Homo sapiens, UniProt P08684). The test can be described thus: biochemical.
Chain of CYP3A4 (P08684 whole entry): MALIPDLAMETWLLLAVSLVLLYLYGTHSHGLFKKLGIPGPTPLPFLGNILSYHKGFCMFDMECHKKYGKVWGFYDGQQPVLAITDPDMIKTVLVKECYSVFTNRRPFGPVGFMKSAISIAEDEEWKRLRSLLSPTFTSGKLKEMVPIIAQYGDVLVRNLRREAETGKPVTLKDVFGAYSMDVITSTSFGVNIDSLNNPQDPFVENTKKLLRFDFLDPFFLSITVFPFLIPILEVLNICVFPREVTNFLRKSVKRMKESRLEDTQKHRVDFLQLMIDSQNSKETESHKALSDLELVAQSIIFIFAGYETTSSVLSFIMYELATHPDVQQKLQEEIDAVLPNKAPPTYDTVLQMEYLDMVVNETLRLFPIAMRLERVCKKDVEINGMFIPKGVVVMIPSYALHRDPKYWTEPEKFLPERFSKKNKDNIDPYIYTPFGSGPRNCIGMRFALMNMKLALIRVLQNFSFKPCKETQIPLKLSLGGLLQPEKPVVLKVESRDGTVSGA
The target of the next test is T1, CYP1A2 (Homo sapiens, UniProt P05177).
T1 sequence (P05177 1-516): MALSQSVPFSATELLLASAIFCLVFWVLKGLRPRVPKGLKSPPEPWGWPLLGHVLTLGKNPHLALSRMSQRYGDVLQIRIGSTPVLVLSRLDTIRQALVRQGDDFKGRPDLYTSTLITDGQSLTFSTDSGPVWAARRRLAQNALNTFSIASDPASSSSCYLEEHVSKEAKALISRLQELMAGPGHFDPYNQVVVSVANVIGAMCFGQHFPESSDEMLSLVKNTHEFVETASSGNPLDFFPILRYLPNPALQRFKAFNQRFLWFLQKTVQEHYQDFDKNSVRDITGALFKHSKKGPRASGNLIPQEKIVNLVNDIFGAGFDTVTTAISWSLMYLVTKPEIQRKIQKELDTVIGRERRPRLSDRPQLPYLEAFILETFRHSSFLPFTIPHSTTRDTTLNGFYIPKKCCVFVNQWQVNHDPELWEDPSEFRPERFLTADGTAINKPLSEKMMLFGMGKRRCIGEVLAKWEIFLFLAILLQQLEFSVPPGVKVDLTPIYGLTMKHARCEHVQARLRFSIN
Kind of test: biochemical.

In test [1] the target is human opioid receptor-like (ORL-1) (Homo sapiens, UniProt P41146). The test can be described thus: ORL-1 receptor [35S]GTPγS functional binding assay. The test is classed as biochemical. (In general: GTPγS is a poorly hydrolysed GTP analogue; its binding reports G protein activation.)
Chain of human opioid receptor-like (ORL-1) (P41146 whole entry): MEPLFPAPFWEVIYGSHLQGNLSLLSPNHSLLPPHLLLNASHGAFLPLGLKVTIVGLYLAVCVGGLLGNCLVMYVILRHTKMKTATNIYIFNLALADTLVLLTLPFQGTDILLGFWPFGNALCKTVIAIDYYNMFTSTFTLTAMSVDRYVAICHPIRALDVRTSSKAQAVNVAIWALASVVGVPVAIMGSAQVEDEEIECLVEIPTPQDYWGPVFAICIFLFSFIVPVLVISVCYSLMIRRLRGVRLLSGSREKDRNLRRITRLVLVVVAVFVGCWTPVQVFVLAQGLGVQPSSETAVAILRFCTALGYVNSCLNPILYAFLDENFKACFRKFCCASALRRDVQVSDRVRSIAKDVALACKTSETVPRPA
The target of another test is CYP2C19 (Homo sapiens, UniProt P33261). Kind of test: biochemical.
Chain of CYP2C19 (P33261 whole entry): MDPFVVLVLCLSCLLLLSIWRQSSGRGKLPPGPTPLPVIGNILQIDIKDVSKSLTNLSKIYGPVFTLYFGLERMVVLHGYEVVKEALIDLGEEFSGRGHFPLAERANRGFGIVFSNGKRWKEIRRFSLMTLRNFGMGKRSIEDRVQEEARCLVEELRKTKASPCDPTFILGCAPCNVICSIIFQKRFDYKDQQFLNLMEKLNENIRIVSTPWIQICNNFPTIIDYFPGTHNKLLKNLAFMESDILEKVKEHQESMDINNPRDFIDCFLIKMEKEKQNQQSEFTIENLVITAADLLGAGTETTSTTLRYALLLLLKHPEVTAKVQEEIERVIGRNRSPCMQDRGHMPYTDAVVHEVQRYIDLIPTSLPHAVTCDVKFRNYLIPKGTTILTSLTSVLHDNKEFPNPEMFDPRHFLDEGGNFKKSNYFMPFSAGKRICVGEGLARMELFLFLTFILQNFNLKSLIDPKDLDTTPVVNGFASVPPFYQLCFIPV
A further test has as its target CYP2C9 (Homo sapiens, UniProt P11712). Kind of test: biochemical.
For test [2], the target named is human kappa opioid receptor (Homo sapiens, UniProt P41145). Kind of test: In vitro kappa-opioid receptor binding assay ([3H]-U69,593 displacement).
Chain of human kappa opioid receptor (P41145 whole entry): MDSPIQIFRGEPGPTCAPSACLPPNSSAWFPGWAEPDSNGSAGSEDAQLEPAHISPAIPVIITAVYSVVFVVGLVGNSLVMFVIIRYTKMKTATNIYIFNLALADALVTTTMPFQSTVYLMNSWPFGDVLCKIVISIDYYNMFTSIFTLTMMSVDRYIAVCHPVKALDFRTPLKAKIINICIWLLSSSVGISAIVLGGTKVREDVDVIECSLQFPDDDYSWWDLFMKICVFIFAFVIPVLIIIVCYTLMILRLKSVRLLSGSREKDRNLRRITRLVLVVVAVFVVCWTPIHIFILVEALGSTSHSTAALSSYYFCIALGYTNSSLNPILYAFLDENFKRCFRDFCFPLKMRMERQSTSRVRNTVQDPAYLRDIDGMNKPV
In a further test the target is delta opioid receptor (Homo sapiens, UniProt P41143). The test can be described thus: In vitro delta-opioid receptor binding assay ([3H]-Naltrindole displacement).
Chain of delta opioid receptor (P41143 whole entry): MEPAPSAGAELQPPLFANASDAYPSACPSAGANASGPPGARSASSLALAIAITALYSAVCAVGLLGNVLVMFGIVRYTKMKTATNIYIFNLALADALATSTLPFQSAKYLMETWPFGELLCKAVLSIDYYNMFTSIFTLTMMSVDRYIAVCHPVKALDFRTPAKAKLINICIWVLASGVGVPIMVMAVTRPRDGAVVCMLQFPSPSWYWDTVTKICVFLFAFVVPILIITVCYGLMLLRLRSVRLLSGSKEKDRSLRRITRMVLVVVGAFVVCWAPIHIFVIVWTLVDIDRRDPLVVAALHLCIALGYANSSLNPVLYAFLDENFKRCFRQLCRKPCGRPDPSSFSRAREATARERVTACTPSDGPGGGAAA
The target in the next test is human μ-opioid receptors (Homo sapiens, UniProt P35372). Kind of test: In vitro mu-opioid receptor binding assay ([3H]-diprenorphine displacement). As to conditions: read-out: Mu opioid receptor Ki [Average ± Std Deviation].
Chain of human μ-opioid receptors (P35372 whole entry): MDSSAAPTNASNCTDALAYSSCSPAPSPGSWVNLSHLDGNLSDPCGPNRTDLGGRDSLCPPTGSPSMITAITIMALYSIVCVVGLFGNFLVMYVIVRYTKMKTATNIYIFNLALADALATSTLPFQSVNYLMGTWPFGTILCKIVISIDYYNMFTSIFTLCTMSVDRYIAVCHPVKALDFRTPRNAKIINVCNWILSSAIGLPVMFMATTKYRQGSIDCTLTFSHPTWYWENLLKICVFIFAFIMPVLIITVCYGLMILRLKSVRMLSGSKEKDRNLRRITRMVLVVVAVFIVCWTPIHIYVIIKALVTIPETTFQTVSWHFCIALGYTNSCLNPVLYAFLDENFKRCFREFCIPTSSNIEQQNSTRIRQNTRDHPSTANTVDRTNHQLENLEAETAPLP

Chain of CYP2C9 (P11712 whole entry): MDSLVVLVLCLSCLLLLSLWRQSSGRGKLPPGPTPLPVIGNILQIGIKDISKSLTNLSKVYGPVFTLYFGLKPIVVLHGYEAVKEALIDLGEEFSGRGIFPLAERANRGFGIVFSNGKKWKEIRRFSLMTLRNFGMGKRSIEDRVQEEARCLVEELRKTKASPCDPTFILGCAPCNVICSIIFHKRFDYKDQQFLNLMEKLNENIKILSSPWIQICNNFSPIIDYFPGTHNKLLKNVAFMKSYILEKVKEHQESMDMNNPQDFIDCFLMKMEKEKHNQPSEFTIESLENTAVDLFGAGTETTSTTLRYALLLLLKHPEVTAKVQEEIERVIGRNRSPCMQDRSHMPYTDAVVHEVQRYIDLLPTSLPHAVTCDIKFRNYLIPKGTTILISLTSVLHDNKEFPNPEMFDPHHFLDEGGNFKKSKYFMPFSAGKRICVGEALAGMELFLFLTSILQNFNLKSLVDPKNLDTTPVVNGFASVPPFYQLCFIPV
Chain of CYP2D6 (P10635 whole entry): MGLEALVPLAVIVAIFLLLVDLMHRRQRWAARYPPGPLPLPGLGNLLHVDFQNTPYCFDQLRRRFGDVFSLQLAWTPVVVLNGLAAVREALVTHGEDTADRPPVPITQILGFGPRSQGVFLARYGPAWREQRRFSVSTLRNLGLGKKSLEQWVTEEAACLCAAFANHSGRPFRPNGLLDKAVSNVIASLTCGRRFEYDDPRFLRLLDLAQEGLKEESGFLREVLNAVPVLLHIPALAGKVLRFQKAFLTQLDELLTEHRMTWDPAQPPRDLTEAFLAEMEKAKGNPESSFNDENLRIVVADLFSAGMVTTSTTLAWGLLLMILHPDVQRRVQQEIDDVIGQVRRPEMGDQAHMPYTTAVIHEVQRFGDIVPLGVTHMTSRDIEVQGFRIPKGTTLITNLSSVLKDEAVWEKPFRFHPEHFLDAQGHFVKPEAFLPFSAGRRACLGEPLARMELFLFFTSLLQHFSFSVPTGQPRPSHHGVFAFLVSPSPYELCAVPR

As to `CO/N=C(\CCC(=O)O)c1nc2ccccc2n([C@H]2C[C@H]3CCC[C@@H](C2)N3C2CCCCCCCC2)c1=O` [Compound 10, 4-[4-((1R,3R,7S)-9-cyclononyl-9-aza-bicyclo[3.3.1]non-3-yl)-3-oxo-3,4-dihydro-quinoxalin-2-yl]-4-methoxyimino-butyric acid], the half-maximal inhibitory concentration (IC50) at CYP2D6, against CYP3A4, at CYP1A2, at CYP2C19 and against CYP2C9 was above 20 µM throughout. The compound also registered an EC50 in test [1] of 0.104 ± 0.012 µM.

For `CON=C(CCC(=O)O)c1nc2ccccc2n([C@H]2C[C@H]3CC[C@@H](C2)N3C2CC3CCCC(C3)C2)c1=O` (stereo partly drawn) [Compound 14, 4-(4-((1R,3R)-8-(bicyclo[3.3.1]nonan-3-yl)-8-azabicyclo[3.2.1]octan-3-yl)-3-oxo-3,4-dihydroquinoxalin-2-yl)-4-(methoxyimino)butanoic acid], the IC50 against CYP2D6, against CYP3A4, against CYP1A2, on CYP2C19 and at CYP2C9 was above 20 µM in each case. Besides, the Ki in test [2] is 2.76 ± 0.245 µM; at delta opioid receptor, above 20 µM; at human μ-opioid receptors it was 2.3 ± 0.153 µM. The same compound came in with an EC50 in test [1] of 0.15 ± 0.014 µM.

As for `C/C(=N\OCC(=O)O)c1nc2ccccc2n([C@H]2C[C@H]3CCC[C@@H](C2)N3C2CCCCCCCCC2)c1=O` [Compound 21], the IC50 at CYP2D6, against CYP3A4, at CYP1A2, at CYP2C19 and against CYP2C9 was above 20 µM each time. Besides, the EC50 in [1] turned out to be 0.239 ± 0.0254 µM.

In the case of `NC(=O)/C(=N\OCC(=O)O)c1nc2ccccc2n([C@H]2C[C@H]3CCC[C@@H](C2)N3C2CC3CCCC(C3)C2)c1=O` (stereo partly drawn) [Compound 40], the IC50 on CYP2D6, against CYP3A4, at CYP1A2, against CYP2C19 and at CYP2C9 was above 20 µM throughout. For the same compound, the values for the Ki (in test [2]; at delta opioid receptor; at human μ-opioid receptors) were 1.7 ± 0.278 µM, above 20 µM and 2.71 ± 0.285 µM, respectively. The EC50 in [1] was found to be 0.113 ± 0.031 µM.

`CON=C(CCC(=O)O)c1nc2ccccc2n([C@H]2C[C@H]3COC[C@@H](C2)N3C2CC3CCCCC(C3)C2)c1=O` (stereo partly drawn) [Compound 48]: the IC50 against CYP2D6, on CYP3A4, at CYP1A2, at CYP2C19 and against CYP2C9 was above 20 µM throughout. Besides, the Ki is above 20 µM in [2], above 20 µM at delta opioid receptor and 15.6 µM on human μ-opioid receptors. The compound further displayed an EC50 in test [1] of 0.149 ± 0.029 µM.

As for `NC(=O)C(=NOCC(=O)O)c1nc2ccccc2n([C@H]2C[C@H]3CCC[C@@H](C2)N3C2CC3CCCCC(C3)C2)c1=O` (stereo partly drawn) [Compound 55], the IC50 on CYP2D6, at CYP3A4, against CYP1A2, against CYP2C19 and against CYP2C9 was above 20 µM in each case.

Take `COCCO/N=C(\CCC(=O)O)c1nc2ccccc2n([C@H]2C[C@H]3CCC[C@@H](C2)N3C2CC3CCCCC(C3)C2)c1=O` (stereo partly drawn) [Compound 56]: the IC50 at CYP2D6, against CYP3A4, against CYP1A2, on CYP2C19 and against CYP2C9 was above 20 µM in each case.

`CC(C)(ON=C(C(N)=O)c1nc2ccccc2n([C@H]2C[C@H]3CCC[C@@H](C2)N3C2CC3CCCC(C3)C2)c1=O)C(=O)O` (stereo partly drawn) [Compound 57]: the IC50 at CYP2D6, on CYP3A4, against CYP1A2, against CYP2C19 and on CYP2C9 was above 20 µM each time.

With `CNC(=O)CCC(=NOCC(=O)O)c1nc2ccccc2n([C@H]2C[C@H]3CCC[C@@H](C2)N3C2CC3CCCCC(C3)C2)c1=O` (stereo partly drawn) [Compound 58], the IC50 on CYP2D6, against CYP3A4, on CYP1A2, against CYP2C19 and on CYP2C9 was above 20 µM in each case.

For the compound `NC(=O)CCC(=NOCC(=O)O)c1nc2ccccc2n([C@H]2C[C@H]3CCC[C@@H](C2)N3C2CC3CCCCC(C3)C2)c1=O` (stereo partly drawn) [Compound 59], the 50% inhibitory concentration (IC50) against CYP2D6, against CYP3A4, against CYP1A2, against CYP2C19 and against CYP2C9 was above 20 µM each time.

Take `NC(=O)CO/N=C(\C(=O)O)c1nc2ccccc2n([C@H]2C[C@H]3CC[C@@H](C2)N3C2CC3CCCCC(C3)C2)c1=O` (stereo partly drawn) [Compound 60]: the IC50 at CYP2D6, on CYP3A4, against CYP1A2, at CYP2C19 and at CYP2C9 was above 20 µM in each case.

`CC(C)(O/N=C(\C(=O)O)c1nc2ccccc2n([C@H]2C[C@H]3CC[C@@H](C2)N3C2CC3CCCCC(C3)C2)c1=O)C(N)=O` (stereo partly drawn) [Compound 61]: the IC50 against CYP2D6, at CYP3A4, on CYP1A2, against CYP2C19 and against CYP2C9 was above 20 µM throughout.

Turning to `CN(C)C(=O)CON=C(C(=O)O)c1nc2ccccc2n([C@H]2C[C@H]3CCC[C@@H](C2)N3C2CC3CCCC(C3)C2)c1=O` (stereo partly drawn) [Compound 63], the IC50 at CYP2D6, at CYP3A4, against CYP1A2, at CYP2C19 and against CYP2C9 was above 20 µM each time.

As to `CNC(=O)CON=C(C(=O)O)c1nc2ccccc2n([C@H]2C[C@H]3CCC[C@@H](C2)N3C2CC3CCCC(C3)C2)c1=O` (stereo partly drawn) [Compound 64], the IC50 on CYP2D6, against CYP3A4, against CYP1A2, on CYP2C19 and against CYP2C9 was above 20 µM throughout.

Take `N#CC(=NOCC(=O)O)c1nc2ccccc2n([C@H]2C[C@H]3CCC[C@@H](C2)N3C2CC3CCCC(C3)C2)c1=O` (stereo partly drawn) [Compound 65, 2-((((4-((1R,1′R,3r,3′R,5S,5′S)-[3,9′-bi(9′-azabicyclo[3.3.1]nonan)]-3′-yl)-3-oxo-3,4-dihydroquinoxalin-2-yl)(cyano)methylene)amino)oxy)acetic acid]: the IC50 at CYP2D6, against CYP3A4, against CYP1A2, against CYP2C19 and at CYP2C9 was above 20 µM each time.

For `NC(=O)CO/N=C(\C(N)=O)c1nc2ccccc2n([C@H]2C[C@H]3CCC[C@@H](C2)N3C2CC3CCCCC(C3)C2)c1=O` (stereo partly drawn) [Compound 66], the IC50 on CYP2D6, on CYP3A4, against CYP1A2, at CYP2C19 and against CYP2C9 was above 20 µM each time.

As to `CC(C)ON=C(CCC(=O)O)c1nc2ccccc2n([C@H]2C[C@H]3CC[C@@H](C2)N3C2CC3CCCCC(C3)C2)c1=O` (stereo partly drawn) [Compound 67], the IC50 against CYP2D6, at CYP3A4, against CYP1A2, at CYP2C19 and against CYP2C9 was above 20 µM in each case.
